Assay results published in patent EP4610269A1, “UROKINASE PLASMINOGEN ACTIVATOR SURFACE RECEPTOR (UPAR) LIGANDS FOR DIAGNOSTIC OR THERAPEUTIC USE” (3B Pharmaceuticals GmbH, priority 2024, dated 2025).
*1 amine or outer side, *2 acyl side, *3 side chain or, on linkers, in order; H or OH if unused. Where a SMILES comes first, the peptide text is derived from it. Bridges are numbered along the chain shown (N, C = ends). [ ]: non-standard residue; d: D form. The star is where a group is joined. DOTA = O=C(O)CN1CCN(CC(=O)O)CCN(CC(=O)*)CCN(CC(=O)O)CC1; Pro(trans-4-F) = O=C(O)[C@@H]1C[C@@H](F)CN1; Pro(cis-4-F) = O=C(O)[C@@H]1C[C@H](F)CN1; Dopa = N[C@@H](Cc1ccc(O)c(O)c1)C(=O)O; Bta = N[C@@H](Cc1csc2ccccc12)C(=O)O; NMeY = CN[C@@H](Cc1ccc(O)cc1)C(=O)O; NMeR = CN[C@@H](CCCNC(=N)N)C(=O)O; Hyp = O=C(O)[C@@H]1C[C@@H](O)CN1; Pentanoyl(4-Me) = CC(C)CCC(=O)*; X1 = O=C(CN1CCN([*:1])CC1)[*:2]; Cit = NC(=O)NCCC[C@H](N)C(=O)O; Butoxycarbonyl = CCCCOC(=O)*; Propanoyl(3-OH) = O=C(CCO)*; dNle = CCCC[C@@H](N)C(=O)O; NMeS = CN[C@@H](CO)C(=O)O; Nle = CCCC[C@H](N)C(=O)O; Orn = NCCC[C@H](N)C(=O)O; Api = NC1(C(=O)O)CCNCC1; Nva = CCC[C@H](N)C(=O)O; Pentanoyl = CCCCC(=O)*; Aib = CC(C)(N)C(=O)O; CO = O=C([*:1])[*:2]; NHBu = CCCCN*

Assays:
[1] = biological target: T1, uPAR-expressing HEC-265 human endometrial adenocarcinoma cells (Homo sapiens, UniProt Q03405); test: Competitive FACS binding assay; details: pIC50 category of FACS binding
T1 construct: Cell surface uPAR-expressing HEC-265 human endometrial adenocarcinoma cells; host or cells: HEC-265
T1 sequence (Q03405 23-335): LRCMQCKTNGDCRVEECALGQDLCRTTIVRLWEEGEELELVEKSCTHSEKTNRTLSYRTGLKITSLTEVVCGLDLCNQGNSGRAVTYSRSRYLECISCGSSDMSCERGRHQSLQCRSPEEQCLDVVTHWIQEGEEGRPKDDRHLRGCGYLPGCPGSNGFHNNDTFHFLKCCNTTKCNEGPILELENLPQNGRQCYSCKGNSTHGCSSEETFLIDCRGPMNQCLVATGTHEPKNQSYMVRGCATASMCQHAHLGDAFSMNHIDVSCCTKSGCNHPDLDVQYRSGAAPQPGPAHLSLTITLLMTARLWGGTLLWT
In short: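 HEC-265 cells incubated 1 h at 4 °C with 10 nM biotinylated uPAR peptide tracer plus increasing test compound, then stained with APC-streptavidin on ice. Median APC fluorescence by flow cytometry; 4PL fit gives pIC50.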

human uPAR (uPAR-Fc) = biological target: T2, human uPAR (uPAR-Fc) (Homo sapiens, UniProt Q03405); test: Surface plasmon resonance (SPR) assay, single cycle kinetics; type: binding; details: pKD category for uPAR SPR activity assay; uPAR-Fc on Protein A-Chip, 25°C; read-out: pKD CAT (converted)
T2 construct: comprising amino acids Leu23-Arg303 according to UniProt entry Q03405.1; purchased R&D Systems 10378-UK-100
T2 sequence (Q03405 23-303): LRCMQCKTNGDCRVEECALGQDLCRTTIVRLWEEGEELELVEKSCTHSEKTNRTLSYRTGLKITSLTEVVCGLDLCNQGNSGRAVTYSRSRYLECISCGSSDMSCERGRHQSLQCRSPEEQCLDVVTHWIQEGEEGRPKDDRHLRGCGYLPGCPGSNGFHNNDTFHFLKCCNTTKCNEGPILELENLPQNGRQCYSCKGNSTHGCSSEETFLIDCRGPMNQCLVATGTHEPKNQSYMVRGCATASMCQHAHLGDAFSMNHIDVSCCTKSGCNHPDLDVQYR
In short: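 uPAR-Fc (Leu23-Arg303 extracellular domains, human IgG1 Fc) captured on Protein A chip to ~2000 RU; single-cycle kinetics at 25°C in HEPES running buffer pH 7.4 with 0.1% DMSO. KD from double-referenced sensorgrams fitted to 1:1 Langmuir model, reported as pKD.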

SMILES	IC50 [1] [nM]	Kd (human uPAR (uPAR-Fc)) [nM]
CC[C@H](C)[C@@H]1NC(=O)[C@@H](C)NC(=O)[C@@H]2CCCN2C(=O)[C@H](Cc2ccccc2)NC(=O)[C@H](Cc2ccc(O)cc2)NC(=O)C(C)(C)NC(=O)[C@H](CCCNC(N)=O)NC(=O)[C@@H](NC(=O)CCC(C)C)CSSC[C@@H](C(N)=O)NC(=O)[C@H](CC(C)C)NC1=O [UPAR-269, iHex-[Cys-Cit-Aib-Tyr-Phe-Pro-ala-Ile-Leu-Cys]-NH2] ({Pentanoyl(4-Me)}-C[Cit][Aib]YFP[dA]ILC-NH2; disulfide 1-10)	12.6 to 31.6	1.58 to 10
CCCCC(=O)N[C@H]1CSSC[C@@H](C(N)=O)NC(=O)[C@H](CCC)NC(=O)[C@H]([C@@H](C)CC)NC(=O)CN2CCN(CC2)C(=O)[C@H](Cc2ccccc2)NC(=O)[C@H](Cc2ccc(O)cc2)NC(=O)[C@H](CCC(N)=O)NC(=O)[C@H](CCCNC(=N)N)NC1=O [UPAR-271, Pent-[Cys-Arg-Gln-Tyr-Phe-PPAc-Ile-Nva-Cys]-NH2] (Pentanoyl-CRQYF[X1]I[Nva]C-NH2; disulfide 1-9)	≥ 126	> 100
CCCC[C@H]1NC(=O)[C@H](CCCNC(=N)N)NC(=O)[C@@H](NC(=O)[C@H](CC(C)C)NC(=O)[C@H](CC(=O)O)NC(C)=O)CSSC[C@@H](C(N)=O)NC(=O)[C@H](CC(C)C)NC(=O)[C@H]([C@@H](C)CC)NC(=O)[C@H](C)NC(=O)[C@@H]2CCCN2C(=O)[C@H](Cc2ccccc2)NC(=O)[C@H](Cc2ccc(O)cc2)NC1=O [UPAR-274, Ac-Asp-Leu-[Cys-Arg-nle-Tyr-Phe-Pro-Ala-Ile-Leu-Cys]-NH2] (Ac-DLCR[dNle]YFPAILC-NH2; disulfide 3-12)	12.6 to 31.6	1.58 to 10
CCCCC(=O)N[C@H]1CSSC[C@@H](C(N)=O)NC(=O)[C@H](CCC)NC(=O)[C@H]([C@@H](C)CC)NC(=O)[C@H](CO)N(C)C(=O)[C@@H]2CCCN2C(=O)[C@H](Cc2ccccc2)NC(=O)[C@H](Cc2ccc(O)cc2)NC(=O)[C@H](CCCCNC(=O)CN2CCN(CC(=O)O)CCN(CC(=O)O)CCN(CC(=O)O)CC2)NC(=O)[C@H](CCCNC(N)=O)NC1=O [UPAR-277, Pent-[Cys-Cit-Lys(DOTA)-Tyr-Phe-Pro-Nms-Ile-Nva-Cys]-NH2] (Pentanoyl-C[Cit]K(DOTA)YFP[NMeS]I[Nva]C-NH2; disulfide 1-10)	39.8 to 100	10 to 100
CCCCOC(=O)N[C@H]1CSSC[C@@H](C(N)=O)NC(=O)[C@H](CCC)NC(=O)[C@H]([C@@H](C)CC)NC(=O)[C@@H]2C[C@@H](O)CN2C(=O)[C@@H]2C[C@H](F)CN2C(=O)[C@H](Cc2ccccc2)NC(=O)[C@H](Cc2ccc(O)c(O)c2)NC(=O)[C@H](CCCNC(=O)CN2CCN(CC(=O)O)CCN(CC(=O)O)CCN(CC(=O)O)CC2)NC(=O)[C@H]([C@@H](C)O)NC1=O [UPAR-280, Butoc-[Cys-Thr-Orn(DOTA)-Dopa-Phe-4Cfp-Hyp-Ile-Nva-Cys]-NH2] (Butoxycarbonyl-CT[Orn](DOTA)[Dopa]F[Pro(cis-4-F)][Hyp]I[Nva]C-NH2; disulfide 1-10)	≤ 10	< 1.58
CCCCOC(=O)N[C@H]1CSSC[C@@H](C(N)=O)NC(=O)[C@H](CCC)NC(=O)[C@H]([C@@H](C)CC)NC(=O)[C@@H]2C[C@@H](O)CN2C(=O)[C@@H]2C[C@@H](O)CN2C(=O)[C@H](Cc2ccccc2)NC(=O)[C@H](Cc2ccc(O)c(O)c2)NC(=O)[C@H](CCCCNC(=O)CN2CCN(CC(=O)O)CCN(CC(=O)O)CCN(CC(=O)O)CC2)NC(=O)[C@H]([C@@H](C)O)NC1=O [UPAR-284, Butoc-[Cys-Thr-Lys(DOTA)-Dopa-Phe-Hyp-Hyp-Ile-Nva-Cys]-NH2] (Butoxycarbonyl-CTK(DOTA)[Dopa]F[Hyp][Hyp]I[Nva]C-NH2; disulfide 1-10)	≤ 10	< 1.58
CCCCC(=O)N[C@H]1CSSC[C@@H](C(N)=O)NC(=O)[C@H](CCC)NC(=O)[C@H]([C@@H](C)CC)NC(=O)[C@@H]2C[C@@H](O)CN2C(=O)[C@@H]2CCCN2C(=O)[C@H](Cc2ccccc2)NC(=O)[C@H](Cc2ccc(O)cc2)NC(=O)C2(CCN(C(=O)CN3CCN(CC(=O)O)CCN(CC(=O)O)CCN(CC(=O)O)CC3)CC2)NC(=O)[C@H]([C@@H](C)O)NC1=O [UPAR-288, Pent-[Cys-Thr-Apc(DOTA)-Tyr-Phe-Pro-Hyp-Ile-Nva-Cys]-NH2] (Pentanoyl-CT[Api](DOTA)YFP[Hyp]I[Nva]C-NH2; disulfide 1-10)	≤ 10	< 1.58
CCCCOC(=O)N[C@H]1CSSC[C@@H](C(N)=O)NC(=O)[C@H](CCC)NC(=O)[C@H]([C@@H](C)CC)NC(=O)[C@@H]2C[C@@H](F)CN2C(=O)[C@@H]2CCCN2C(=O)[C@H](Cc2ccccc2)NC(=O)[C@H](Cc2ccc(O)cc2)NC(=O)[C@H](CCCCNC(=O)CN2CCN(CC(=O)O)CCN(CC(=O)O)CCN(CC(=O)O)CC2)NC(=O)[C@H]([C@@H](C)O)NC1=O [UPAR-289, Butoc-[Cys-Thr-Lys(DOTA)-Tyr-Phe-Pro-4Tfp-Ile-Nva-Cys]-NH2] (Butoxycarbonyl-CTK(DOTA)YFP[Pro(trans-4-F)]I[Nva]C-NH2; disulfide 1-10)	≤ 10	< 1.58

Results, then the compound that gave them:

IC50 [1] [nM]	Kd (human uPAR (uPAR-Fc)) [nM]	SMILES
≤ 10	< 1.58	CCCC[C@@H]1NC(=O)[C@H](CCCNC(=N)N)NC(=O)[C@@H](NC(=O)[C@H](CC(C)C)NC(=O)[C@H](CC(=O)O)NC(C)=O)CSSC[C@@H](C(N)=O)NC(=O)[C@H](CC(C)C)NC(=O)[C@H]([C@@H](C)CC)NC(=O)[C@H](C)NC(=O)[C@@H]2CCCN2C(=O)[C@H](Cc2ccccc2)NC(=O)[C@H](Cc2ccc(O)cc2)NC1=O [UPAR-270, Ac-Asp-Leu-[Cys-Arg-Nle-Tyr-Phe-Pro-Ala-Ile-Leu-Cys]-NH2] (Ac-DLCR[Nle]YFPAILC-NH2; disulfide 3-12)
39.8 to 100	> 100	CC[C@H](C)[C@@H]1NC(=O)[C@@H](C)NC(=O)[C@@H]2CCCN2C(=O)[C@H](Cc2ccccc2)NC(=O)[C@H](Cc2ccc(O)cc2)NC(=O)[C@H](CCC(N)=O)NC(=O)[C@H](CCCNC(N)=O)NC(=O)[C@@H](NC(=O)CCO)CSSC[C@@H](C(N)=O)NC(=O)[C@H](CC(C)C)NC1=O [UPAR-272, HPA-[Cys-Cit-Gln-Tyr-Phe-Pro-ala-Ile-Leu-Cys]-NH2] ({Propanoyl(3-OH)}-C[Cit]QYFP[dA]ILC-NH2; disulfide 1-10)
≤ 10	< 1.58	CCCCC(=O)N[C@H]1CSSC[C@@H](C(N)=O)NC(=O)[C@H](CCC)NC(=O)[C@H]([C@@H](C)CC)NC(=O)[C@@H]2C[C@@H](O)CN2C(=O)[C@@H]2CCCN2C(=O)[C@H](Cc2csc3ccccc23)NC(=O)[C@H](Cc2ccc(O)cc2)NC(=O)[C@H](CCC(N)=O)NC(=O)[C@H](CCCNC(=N)N)NC1=O [UPAR-273, Pent-[Cys-Arg-Gln-Tyr-Bta-Pro-Hyp-Ile-Nva-Cys]-NH2] (Pentanoyl-CRQY[Bta]P[Hyp]I[Nva]C-NH2; disulfide 1-10)
≤ 10	< 1.58	CCCCC(=O)N[C@H]1CSSC[C@@H](C(N)=O)NC(=O)[C@H](CCC)NC(=O)[C@H]([C@@H](C)CC)NC(=O)[C@H](CC(C)C)NC(=O)[C@@H]2CCCN2C(=O)[C@H](Cc2ccccc2)NC(=O)[C@H](Cc2ccc(O)cc2)NC(=O)[C@H](CCC(N)=O)NC(=O)[C@H](CCCNC(=N)N)NC1=O [UPAR-281, Pent-[Cys-Arg-Gln-Tyr-Phe-Pro-Leu-Ile-Nva-Cys]-NH2] (Pentanoyl-CRQYFPLI[Nva]C-NH2; disulfide 1-10)
≤ 10	< 1.58	CCCCC(=O)N[C@H]1CSSC[C@@H](C(N)=O)NC(=O)[C@H](CCC)NC(=O)[C@H]([C@@H](C)CC)NC(=O)[C@@H]2C[C@@H](O)CN2C(=O)[C@@H]2CCCN2C(=O)[C@H](Cc2ccccc2)NC(=O)[C@H](Cc2ccc(O)cc2)NC(=O)[C@H](CCCCNC(=O)CN2CCN(CC(=O)O)CCN(CC(=O)O)CCN(CC(=O)O)CC2)NC(=O)[C@H](CC(N)=O)NC1=O [UPAR-283, Pent-[Cys-Asn-Lys(DOTA)-Tyr-Phe-Pro-Hyp-Ile-Nva-Cys]-NH2] (Pentanoyl-CNK(DOTA)YFP[Hyp]I[Nva]C-NH2; disulfide 1-10)
≥ 126	> 100	CC[C@H](C)[C@@H]1NC(=O)[C@@H](C)NC(=O)[C@@H]2CCCN2C(=O)[C@H](Cc2ccccc2)NC(=O)[C@H](Cc2ccc(O)cc2)N(C)C(=O)[C@H](CCC(N)=O)NC(=O)[C@H](CCCNC(N)=O)NC(=O)[C@@H](NC(=O)CCC(C)C)CSSC[C@@H](C(N)=O)NC(=O)[C@H](CC(C)C)NC1=O [UPAR-285, iHex-[Cys-Cit-Gln-Nmy-Phe-Pro-ala-Ile-Leu-Cys]-NH2] ({Pentanoyl(4-Me)}-C[Cit]Q[NMeY]FP[dA]ILC-NH2; disulfide 1-10)
≤ 10	< 1.58	CCCCNC(=O)N[C@H]1CSSC[C@@H](C(N)=O)NC(=O)[C@H](CC(C)C)NC(=O)[C@H]([C@@H](C)CC)NC(=O)[C@@H](C)NC(=O)[C@@H]2CCCN2C(=O)[C@H](Cc2ccccc2)NC(=O)[C@H](Cc2ccc(O)cc2)NC(=O)[C@H](CCC(N)=O)NC(=O)[C@H](CCCNC(N)=O)NC1=O [UPAR-286, nBuCAyl-[Cys-Cit-Gln-Tyr-Phe-Pro-ala-Ile-Leu-Cys]-NH2] ({NHBu-CO}-C[Cit]QYFP[dA]ILC-NH2; disulfide 1-10)
≥ 126	> 100	CC[C@H](C)[C@@H]1NC(=O)[C@@H](C)NC(=O)[C@@H]2CCCN2C(=O)[C@H](Cc2ccccc2)NC(=O)[C@H](Cc2ccc(O)cc2)NC(=O)[C@H](CCC(N)=O)NC(=O)[C@H](CCCNC(=N)N)N(C)C(=O)[C@@H](NC(=O)CCC(C)C)CSSC[C@@H](C(N)=O)NC(=O)[C@H](CC(C)C)NC1=O [UPAR-287, iHex-[Cys-Nmr-Gln-Tyr-Phe-Pro-ala-Ile-Leu-Cys]-NH2] ({Pentanoyl(4-Me)}-C[NMeR]QYFP[dA]ILC-NH2; disulfide 1-10)
